Test results as given in US4690940A, “Anti-hypertensive agents” (University of Miami, priority 1979, dated 1987).
Non-standard residues stand in square brackets, D forms with d. Residues, ends and D or L forms follow the SMILES beside them. No end group written: not given here. pGlu = O=C1CC[C@@H](C(=O)O)N1

Legend:
ACE [1] = settings: disulfide formed by dimerization of SQ 14,225; believed; cited from earlier work
[2] = test system: ACE purified from human urine; experiment: ACE activity assay (hydrolysis of Benzoyl-GlyHisLeu), I50 determination; assay type: biochemical; settings: in vitro, pH 8.0, 37° C
Procedure: These factors include the source of enzyme, its purity, the substrate used and its concentration, and the composition of the assay buffer. All I50 data reported herein have been performed with the same assay system and same enzyme (human urinary ACE) and with an approximately 1/2Km level of substrate and are therefore internally consistent.
ACE activity assay. […] To initiate the assay, 40 μl of enzyme and 10 μl of water or inhibitor dissolved in water were preincubated for five minutes at 37° C. […] To terminate the reaction, 1 ml of 0.1M HCl was added, following which 1 ml of ethyl acetate was added. The mixture was agitated on a rotary mixer and centrifuged briefly to separate the phases.
An aliquot, 500 μl, of the ethyl acetate layer was transferred to a liquid scintillation vial containing 10 ml of Riafluor, trademark New England Nuclear Corporation, Boston, Massachusetts. For determination of I50 values, enzyme activity in the presence of inhibitor at a series of different concentrations was compared to activity in the absence of inhibitor.

ACE [3] = settings: competitive substrates; cited from earlier work
[4] = test system: Blood Pressure Response to 400 ng/kg of Angiotensin I; experiment: Oral effectiveness: blood pressure response to angiotensin I in anesthetized rats; assay type: in vivo, rat; settings: 400 ng/kg angiotensin I, before drug
Procedure: (§1) Rats (210-290 g body weight) were fasted overnight and then anesthetized with intraperitoneal pentobarbital, 50-60 mg/kg. Tracheostomy was performed and the animals were ventilated mechanically. A cannula was inserted into a femoral vein for injection of angiotensin I, and a second cannula was inserted into a common carotid artery for direct measurement of arterial blood pressure. Heparin, 1,000 units, was injected via the femoral vein to prevent coagulation. Blood pressure was measured with a pressure transducer connected to a polygraph. The rats were injected with 400 ng/kg of angiotensin I in 20 μl of 0.9 g % NaCl; an amount of angiotensin I sufficient to raise mean arterial blood pressure by 39 mm Hg. […] At timed intervals, the effects of 400 ng/kg of angiotensin I on mean arterial blood pressure were tested.

[5] = test system: Blood Pressure Response to 400 ng/kg of Angiotensin I; experiment: Intravenous effectiveness: blood pressure response to angiotensin I in anesthetized rats; assay type: in vivo, rat; settings: 400 ng/kg angiotensin I, -5 minutes
Procedure: as §1
At time intervals, the effects of angiotensin I, 400 ng/kg, on mean arterial blood pressure were tested.

IC50 [2] | Compound | Km relative to angiotensin I (ACE [3]) | further results
– | C[C@H](CSSC[C@@H](C)C(=O)N1CCC[C@H]1C(=O)O)C(=O)N1CCC[C@H]1C(=O)O [disulfide] | – | inhibitory activity of dimer (ACE [1]): largely inactive as an inhibitor
15 nM | C[C@H](CSC(=O)[C@H](Cc1ccccc1)NC(=O)[C@H](CCCCN)NC(=O)C1CCCC1)C(=O)N1CCC[C@H]1C(=O)O [Example 18, N^α -[3-(N^α -cyclopentylcarbonyl-L-lysyl-L-phenylalanylthio)2-D-methylpropanoyl]-L-proline] | – | –
– | RPPGFSPFR [bradykinin] | a lower Km than angiotensin I | –
– | C[C@H](NC(=O)[C@H](Cc1c[nH]c2ccccc12)NC(=O)[C@H](CCCCN)NC(=O)[C@@H]1CCC(=O)N1)C(=O)N1CCC[C@H]1C(=O)O [BPP5a, <GluLysTrpAlaPro] ([pGlu]KWAP-OH) | a lower Km than angiotensin I | –
– | DRVYIHPFHL [angiotensin I] | – | rise of mean arterial blood pressure by angiotensin I [4]: 39 mm Hg; rise of mean arterial blood pressure by angiotensin I [5]: 39 mm Hg
25 nM | C[C@H](CSC(=O)[C@H](Cc1ccccc1)NC(=O)[C@H](CCCCNC(=O)OC(C)(C)C)NC(=O)C1CCCC1)C(=O)N1CCC[C@H]1C(=O)O [Example 17] | – | –
